These are literature values, as cited in patent publication US12109304B1, “Oral patch for treating mouth ulcers” (Xiamen LP Pharmaceutical Co., Ltd., priority 2023, dated 2024).

SMILES strings stand for the structures.

In the case of `CCCCNc1ccc(C(=O)OCCN(C)C)cc1.Cl` [Tetracaine hydrochloride], for the setting “ethanol (alcohol)”, the “Solubility in ethanol / alcohol” value is given as “soluble”. Moreover, the Solubility in water result (water) is on record as “soluble”.
